Measurements reported in publication PMC8308911, “Pharmacokinetic Study of Anti-osteoarthritic Compounds of a Standardized Fraction from Sphaeralcea Angustifolia” (Pharmaceuticals, 2021).
Where two headings read alike, the source gives them in different places.

Legend:
[1] = Pharmacokinetics after single intravenous administration of the SaTSS standardized fraction (plasma, HPLC, PKSolver); type: in vivo, ICR mice; settings: for AUC(0-t): read-out: AUC0-60 (converted); for Vd: read-out: Vss
Procedure: Analyses of HPLC were carried out in a Waters system (2695 Separation module) coupled to a diode array detector (2996) with a 190–600-nm detection range and operated by the Manager Millennium software system (Empower 1; Waters Corporation, Mexico City, Mexico). Separations were performed in a Spherisorb-ODS RP-18 column (250 × 4.6 mm, 5 µm; Waters Corporation, Mexico) employing a constant temperature of 25 °C during the analyses. Samples (20 µL) were eluted at a 1.0 mL/min flow rate with a gradient of mobile phases of (A) high-purity H2O with trifluoroacetic acid to 0.5% v/v (TFA, Sigma-Aldrich, Mexico City, Mexico) and (B) high purity CH3CN, and compounds were detected by monitoring absorbance for tomentin and scopoletin at λ = 343 nm and for sphaeralcic acid at λ = 357 nm. The mobile phase was started with water (100%) and was maintained for 1 min, then solvent B was gradually incorporated at 5% (at 2 min), at 30% (at 4 min), and at 50% (at 16 min). During the next 4 min, solvent B was increased to 100%, and this proportion was maintained for 5 min. Finally, the following 3 min were utilized to return the mobile phase to the initial condition. […] Identification of scopoletin and tomentin as well as sphaeralcic acid was performed by comparing their retention times (tomentin—11.288 min, scopoletin—11.349 min, coumarin mixure—11.457 min, and sphaeralcic acid—23.319 min) and absorbance spectra.
The mice were previously anesthetized with sodium pentobarbital (PiSA Agropecuaria), then retro-orbital sinus blood was obtained using heparinized capillaries and distributed to heparinized tubes, and tubes were centrifuged at 3500 g for 7 min. The plasma obtained was transferred to new tubes and stored at −4 °C until use.
Plasma samples were extracted with CH3CN and TFA (w/v) 20% (1:1), then vials were centrifuged at 14,000 g for 10 min and the supernatant was transferred to another vial and left to dry at room temperature. The precipitate was resuspended with 1 mL of high-purity methanol (Merk, México) and filtered through Teflon membrane (13 mm, 0.45 µm, Life Science). Each filtered sample was injected into the HPLC equipment, and the concentrations of tomentin and scopoletin at λ = 343 nm and of sphaeralcic acid at λ = 357 nm were obtained by comparison with pre-built calibration curves.
To evaluate the suitability of the assay for the pharmacokinetic studies, 400 mg/kg of the active SaTSS fraction standardized in a mixture of tomentin and scopoletin (7.1 mg/400 mg), and sphaeralcic acid (34.6 mg/400 mg) was administered orally or intravenously to the mice. The dose of SaTSS fraction was chosen based on previous research of active compounds, as the median efective dose of each compound and detectable concentrations of them in the fraction. For oral pharmacokinetics, ten animals were used in each group at different times (0, 1.3, 3.3, 5, 10, 20, 40, 60, 80, 120, and 240 min). For intravenous pharmacokinetics, three animals were used in each group at different times (2, 4, 6, 8, 10, 15, 20, 30, and 60 min) Subsequently, the mice were anesthetized, retro-orbital sinus blood was obtained, plasma samples were extracted with CH3CN and TFA (w/v) 20% (1:1), and the extracts were analyzed by HPLC for coumarin (tomentin and scopoletin) and sphaeralcic acid quantification. Pharmacokinetic calculations were performed using the observed data. All data were subsequently processed using the PKSolver add-in program for Microsoft Excel written in Visual Basic for Applications. All values obtained were expressed in mean ± Standard Deviation (SD). For the pharmacokinetic assay, the selection was made either from a one-compartment or from a two-compartment model, with the use of both the Akaike Information Criterion (AIC) and the Schwarz Criterion (SC). […]

[2] = Stability of the active compounds in mouse plasma under handling and storage conditions; settings: mice plasma
Procedure: The investigation presented here expected manipulation conditions during all of the sample storage and process periods, which included the stability data from the freeze/defrost, bench-top, autosampler, and long-term stability tests. For all stability studies, fresh QC samples were evaluated by using a freshly prepared standard curve for the measurements. The analyzed conditions were 0, 8, and 24 h at room temperature, 8 h at 4 °C, and 30 days at −70 °C. The concentrations obtained from all of the stability studies were compared with the fresh QC samples, and the percentage of concentration deviation was calculated.

[3] = ICR, mouse, plasma, iv, 400 mg/kg, intravenous 400 mg/kg SaTES fraction, One-Compartment Model
[4] = ICR, mouse, plasma, iv, 400 mg/kg, intravenous 400 mg/kg SaTES fraction, Two-Compartment Model
[5] = intravenous 400 mg/kg SaTES fraction, One-Compartment Model
[6] = intravenous 400 mg/kg SaTES fraction, Two-Compartment Model
[7] = intravenous 400 mg/kg SaTES fraction, Two-Compartment Model, 400 mg/kg
[8] = intravenous 400 mg/kg SaTES fraction, Two-Compartment Model, listed as Sphaeralcic Acid, 400 mg/kg
[9] = intravenous 400 mg/kg SaTES fraction, Two-Compartment Model, listed as sphaeralcic acid, 400 mg/kg
[10] = Autosampler (4 °C, 8 h), nominal 2.5 μg/mL
[11] = Autosampler (4 °C, 8 h), nominal 5 μg/mL
[12] = Autosampler (4 °C, 8 h), nominal 10 μg/mL
[13] = Long-term (−70 °C, 1 month), nominal 2.5 μg/mL
[14] = Long-term (−70 °C, 1 month), nominal 5 μg/mL
[15] = Long-term (−70 °C, 1 month), nominal 10 μg/mL
[16] = room temperature, 0 h, nominal 2.5 μg/mL
[17] = room temperature, 0 h, nominal 5 μg/mL
[18] = room temperature, 0 h, nominal 10 μg/mL
[19] = room temperature, 8 h, nominal 2.5 μg/mL
[20] = room temperature, 8 h, nominal 5 μg/mL
[21] = room temperature, 8 h, nominal 10 μg/mL
[22] = room temperature, 24 h, nominal 2.5 μg/mL
[23] = room temperature, 24 h, nominal 5 μg/mL
[24] = room temperature, 24 h, nominal 10 μg/mL

- AUC(0-inf) [1, 3]: 21300 ng·h/mL
- clearance [1, 3]: 27 mL/min/kg
- AUC(0-t) [1, 3]: 18300 ng·h/mL
- C0 ([1]; ICR, mouse, plasma, iv, 400 mg/kg, intravenous 400 mg/kg SaTES fraction, One-Compartment Model, read-out: C0): 41700 ng/mL
- MRT ([1]; ICR, mouse, plasma, iv, 400 mg/kg, intravenous 400 mg/kg SaTES fraction, One-Compartment Model, read-out: MRT (converted)): 30.7 min
- Vd [1, 3]: 0.828 L/kg
- half-life ([1]; ICR, mouse, plasma, iv, 400 mg/kg, intravenous 400 mg/kg SaTES fraction, One-Compartment Model, read-out: t1/2): 21.2 min
- AUC(0-inf) [1, 4]: 20400 ng·h/mL
- clearance [1, 4]: 28 mL/min/kg
- AUC(0-t) [1, 4]: 17700 ng·h/mL
- C0 ([1]; ICR, mouse, plasma, iv, 400 mg/kg, intravenous 400 mg/kg SaTES fraction, Two-Compartment Model, read-out: C0): 58500 ng/mL
- MRT ([1]; ICR, mouse, plasma, iv, 400 mg/kg, intravenous 400 mg/kg SaTES fraction, Two-Compartment Model, read-out: MRT (converted)): 29.3 min
- Vd [1, 4]: 0.826 L/kg
- half-life ([1]; ICR, mouse, plasma, iv, 400 mg/kg, intravenous 400 mg/kg SaTES fraction, Two-Compartment Model, read-out: t1/2β): 20.6 min
- concentration at 2 min ([1]; ICR, mouse, plasma, intravenous single dose 400 mg/kg SaTES fraction, 2.0 min, n = 3): 40880 ± 210 ng/mL
- concentration at 4 min ([1]; ICR, mouse, plasma, intravenous single dose 400 mg/kg SaTES fraction, 4.0 min, n = 3): 36280 ± 110 ng/mL
- concentration at 6 min ([1]; ICR, mouse, plasma, intravenous single dose 400 mg/kg SaTES fraction, 6.0 min, n = 3): 33900 ± 240 ng/mL
- concentration at 8 min ([1]; ICR, mouse, plasma, intravenous single dose 400 mg/kg SaTES fraction, 8.0 min, n = 3): 31800 ± 750 ng/mL
- concentration at 10 min ([1]; ICR, mouse, plasma, intravenous single dose 400 mg/kg SaTES fraction, 10 min, n = 3): 28700 ± 650 ng/mL
- concentration at 15 min ([1]; ICR, mouse, plasma, intravenous single dose 400 mg/kg SaTES fraction, 15 min, n = 3): 24400 ± 330 ng/mL
- concentration at 20 min ([1]; ICR, mouse, plasma, intravenous single dose 400 mg/kg SaTES fraction, 20 min, n = 3): 21200 ± 510 ng/mL
- concentration at 30 min ([1]; ICR, mouse, plasma, intravenous single dose 400 mg/kg SaTES fraction, 30 min, n = 3): 15800 ± 570 ng/mL
- concentration at 60 min ([1]; ICR, mouse, plasma, intravenous single dose 400 mg/kg SaTES fraction, 60 min, n = 3): 3810 ± 90 ng/mL
- AUMC [1, 5]: 39,202.118 µg/mL*min^2
- V [1, 5]: 0.828 (mg)/(µg/mL)
- k10 [1, 5]: 0.032 min⁻¹
- AUC0-inf ∞ ([1]; intravenous 400 mg/kg SaTES fraction, One-Compartment Model, 400 mg/kg): 1278.978 µg·min/mL
- k10 [1, 6]: 0.048 min⁻¹
- k12 [1, 6]: 0.249 min⁻¹
- k21 [1, 6]: 0.624 min⁻¹
- t1/2α [1, 6]: 0.781 min
- α [1, 6]: 0.88 min⁻¹
- β [1, 6]: 0.034 min⁻¹
- A (plasma concentration, central compartment) [1, 7]: 18.03 µg/mL
- B (plasma concentration, peripheral compartment) [1, 7]: 40.46 µg/mL
- A (plasma concentration, central compartment) [1, 8]: 18.027 µg/mL
- AUMC [1, 8]: 35,880.304 µg/mL*min^2
- B (plasma concentration, peripheral compartment) [1, 8]: 40.461 µg/mL
- C0 [1, 8]: 58489 ng/mL
- MRT [1, 8]: 29.294 min
- V [1, 8]: 0.591 (mg)/(µg/mL)
- AUMC [1, 9]: 35,880.30 µg/mL*min^2
- V [1, 9]: 0.59 (mg)/(µg/mL)
- Accuracy Bias [2, 10]: −3.89%
- Observed Concentration [2, 10]: 2.40 ± 0.04 µg/mL
- Accuracy Bias [2, 11]: −1.69%
- Observed Concentration [2, 11]: 4.92 ± 0.08 µg/mL
- Accuracy Bias [2, 12]: −3.34%
- Observed Concentration [2, 12]: 9.67 ± 0.12 µg/mL
- Accuracy Bias [2, 13]: −4.82%
- Observed Concentration [2, 13]: 2.38 ± 0.08 µg/mL
- Accuracy Bias [2, 14]: −2.61%
- Observed Concentration [2, 14]: 4.87 ± 0.10 µg/mL
- Accuracy Bias [2, 15]: −3.50%
- Observed Concentration [2, 15]: 9.65 ± 0.08 µg/mL
- Accuracy Bias [2, 16]: −0.60%
- Observed Concentration [2, 16]: 2.48 ± 0.03 µg/mL
- Accuracy Bias [2, 17]: 0.17%
- Observed Concentration [2, 17]: 5.01 ± 0.06 µg/mL
- Accuracy Bias [2, 18]: −0.49%
- Observed Concentration [2, 18]: 9.95 ± 0.11 µg/mL
- Accuracy Bias [2, 19]: −9.98%
- Observed Concentration [2, 19]: 2.25 ± 0.13 µg/mL
- Accuracy Bias [2, 20]: −8.10%
- Observed Concentration [2, 20]: 4.59 ± 0.06 µg/mL
- Accuracy Bias [2, 21]: −6.48%
- Observed Concentration [2, 21]: 9.35 ± 0.11 µg/mL
- Accuracy Bias [2, 22]: −9.03%
- Observed Concentration [2, 22]: 2.27 ± 0.11 µg/mL
- Accuracy Bias [2, 23]: −8.73%
- Observed Concentration [2, 23]: 4.56 ± 0.10 µg/mL
- Accuracy Bias [2, 24]: −7.37%
- Observed Concentration [2, 24]: 9.26 ± 0.07 µg/mL
Structure (SMILES): COc1c(C)cc2c(C(C)C)cc(C(=O)O)c(O)c2c1O [Sphaeralcic acid, sphaeralcic acid]
